IC50 data for 69 compounds are collected here from patent publication US6602873B2, “Angiogenesis inhibiting thiadiazolyl pyridazine derivatives” (Janssen Pharamaceutica, N.V., priority 1997, dated 2003).

Structures are written as SMILES. Structures can show the parent of a compound that is named as a salt. A value given as a limit tells only on which side of the number the result lay.

In one assay the test system is microvessel formation in rat aortic rings. Kind of assay: rat aortic ring model of angiogenesis (inhibition of microvessel formation). The format is cell-based. The conditions noted are these: 192 h, microvessel area after eight days in culture vs vehicle-treated control rings. Here is the method: Angiogenesis inhibitory activity was measured in vitro using the rat aortic ring model of angiogenesis as described by Nicosia, R. F. and Ottinetti in “Laboratory Investigation”, vol. 63, p. 115, 1990. The ability of compounds to inhibit microvessel formation was compared to vehicle-treated control rings. Quantitation (microvessel area) following eight days in culture was performed using an image analysis system, consisting of a light microscope, a CCD camera and an automated, custom-designed image analysis program as described by Nissanov, J., Tuman, R. W., Gruver, L. M., and Fortunato, J. M. in “Laboratory Investigation”, vol 73 (#5), p. 734, 1995. Compounds were tested at several concentrations for determination of inhibitory potency (IC50's).
What is called IC50 is the concentration that inhibits the measured activity by half. A lower IC50 goes with higher potency. With `Cc1nsc(-c2ccc(N(C)CCCCOc3cccc(C(F)(F)F)c3)nn2)n1` [Compound 52, N-methyl-6-(3-methyl-1,2,4-thiadiazol-5-yl)-N-[4-[3-(trifluoromethyl)phenoxy]butyl]-3-pyridazinamine], the IC50 was determined as 5.56 nM.
The same measure, in the same setting: the same measure for `Cc1nsc(-c2ccc(N(C)CCCCOc3ccc(C(F)(F)F)cc3)nn2)n1` [Compound 55, N-methyl-6-(3-methyl-1,2,4-thiadiazol-5-yl)-N-[4-[4-(tri-fluoromethyl)phenoxy]butyl]-3-pyridazinamine monohydrochloride]: 3.62 nM; for `Cc1nsc(-c2ccc(SCCCCOc3cccc(C(F)(F)F)c3)nn2)n1` [Compound 94, 3-(3-methyl-1,2,4-thiadiazol-5-yl)-6-[[4-[3-(trifluoromethyl)phenoxy]butyl]thio]pyridazine]: 4.71 nM.

Staying with this assay, now noted: microvessel area after eight days in culture vs vehicle-treated control rings.
In turn, `Cc1nsc(-c2ccc(NCCCCNc3ccccc3)nn2)n1` [Compound 3] yielded an IC50 of 45.7 nM.
With `Cc1nsc(-c2ccc(NCCCCCNc3ccccc3)nn2)n1` [Compound 4], the half-maximal inhibitory concentration (IC50) amounted to 21.2 nM.
In turn, `Cc1nsc(-c2ccc(NCCCCCCNc3ccccc3)nn2)n1` [Compound 5] came in with an IC50 of 16.4 nM.
As to `Cc1nsc(-c2ccc(NCCNc3cccc(C(F)(F)F)c3)nn2)n1` [Compound 6], the half-maximal inhibitory concentration (IC50) came to 0.428 nM.
Still for that read-out and setting: the same measure for `Cc1nsc(-c2ccc(NCCCNc3cccc(C(F)(F)F)c3)nn2)n1` [Compound 7]: 45.4 nM.
Still for that read-out and setting: the same measure for `Cc1nsc(-c2ccc(NCCCCCCNc3cccc(C(F)(F)F)c3)nn2)n1` [Compound 8]: 8.53 nM; for `Cc1nsc(-c2ccc(N(C)CCNc3ccccc3)nn2)n1` [Compound 9]: 17.9 nM; for `Cc1nsc(-c2ccc(N(C)CCN(C)c3ccccc3)nn2)n1` [Compound 10]: 15.6 nM.
Still for that read-out and setting: the same measure for `FC(F)(F)c1cccc(OCCCCNc2ccc(-c3ncns3)nn2)c1` [Compound 11]: 90.8 nM; for `Cc1nsc(-c2ccc(NCCCCOc3ccc(Br)cc3)nn2)n1` [Compound 14]: 31.2 nM.
`Cc1nsc(-c2ccc(NCCCCOc3ccccc3Cl)nn2)n1` [Compound 15] returned an IC50 of 1.34 nM. This IC50 lies about 23-fold lower than the previous one.
In the case of `Cc1nsc(-c2ccc(NCCCCOc3ccc(Cl)cc3)nn2)n1` [Compound 16], the 50% inhibitory concentration (IC50) is 15.8 nM.
The same measure, in the same setting: the figure for `Cc1nsc(-c2ccc(NCCCCOc3ccc(Cl)c(Cl)c3)nn2)n1` [Compound 17] is 12.8 nM; for `Cc1nsc(-c2ccc(NCCCCOc3cccc(F)c3)nn2)n1` [Compound 20] it is 8.15 nM.
The compound `Cc1nsc(-c2ccc(NCCCCOc3ccc(F)cc3)nn2)n1` [Compound 21] gave an IC50 of 48.4 nM.
For `Cc1nsc(-c2ccc(NCCCCOc3ccc(F)cc3F)nn2)n1` [Compound 22], the half-maximal inhibitory concentration (IC50) stood at 72.6 nM. This IC50 lies about 1.5-fold higher than the previous one.
On the same count and under the same terms, the figure for `Cc1nsc(-c2ccc(NCCOc3cccc(C(F)(F)F)c3)nn2)n1` [Compound 24] is 1.33 nM; for `Cc1nsc(-c2ccc(NCCCOc3cccc(C(F)(F)F)c3)nn2)n1` [Compound 25] it is 40.4 nM; for `Cc1nsc(-c2ccc(NCCCCOc3cccc(C(F)(F)F)c3)nn2)n1` [Compound 26] it is 3.97 nM.
The same measure, in the same setting: the same measure for `Cc1nsc(-c2ccc(NCCCCCOc3cccc(C(F)(F)F)c3)nn2)n1` [Compound 27]: 0.622 nM; for `Cc1nsc(-c2ccc(NCCCCCCOc3cccc(C(F)(F)F)c3)nn2)n1` [Compound 28]: 1.76 nM; for `Cc1ccc(C(C)C)c(OCCCCNc2ccc(-c3nc(C)ns3)nn2)c1` [Compound 29]: 24.8 nM.
Compound `COc1cccc(OCCCCNc2ccc(-c3nc(C)ns3)nn2)c1` [Compound 30] displayed an IC50 of 6.31 nM.
Same read-out and setting: the figure for `Cc1nsc(-c2ccc(N(C)CCCCOc3ccccc3)nn2)n1` [Compound 35] is 29.4 nM; for `Cc1nsc(-c2ccc(N(C)CCCCOc3ccc(Br)cc3)nn2)n1` [Compound 36] it is 5.3 nM; for `Cc1nsc(-c2ccc(N(C)CCCCOc3ccccc3Cl)nn2)n1` [Compound 37] it is 1.32 nM.
On the same count and under the same terms, the same measure for `Cc1nsc(-c2ccc(N(C)CCCCOc3ccc(Cl)cc3)nn2)n1` [Compound 38]: 37.2 nM.
Same read-out and setting: the figure for `Cc1nsc(-c2ccc(N(C)CCCCOc3ccc(Cl)c(Cl)c3)nn2)n1` [Compound 39] is 17.1 nM; for `COc1ccc(OCCCCN(C)c2ccc(-c3nc(C)ns3)nn2)c(Cl)c1` [Compound 40] it is 11.5 nM; for `Cc1nsc(-c2ccc(N(C)CCCCOc3ccccc3F)nn2)n1` [Compound 41] it is 2.56 nM.
Turning to `Cc1nsc(-c2ccc(N(C)CCCCOc3cccc(F)c3)nn2)n1` [Compound 42], half-maximal inhibition (IC50) required 42.2 nM.
`Cc1nsc(-c2ccc(N(C)CCCCOc3ccc(F)cc3)nn2)n1` [Compound 43]: it took 2.78 nM to reach half-maximal inhibition (IC50).
On the same count and under the same terms, the figure for `Cc1nsc(-c2ccc(N(C)CCCCOc3ccc(F)cc3F)nn2)n1` [Compound 44] is 15.2 nM.
Same read-out and setting: the same measure for `Cc1nsc(-c2ccc(N(C)CCCCOc3ccc(F)c(F)c3)nn2)n1` [Compound 45]: 2 nM.
Still for that read-out and setting: the same measure for `Cc1nsc(-c2ccc(N(C)CCCCOc3cccc(C(F)(F)F)c3F)nn2)n1` [Compound 46]: 1.46 nM; for `Cc1nsc(-c2ccc(N(C)CCCCOc3cc(C(F)(F)F)ccc3F)nn2)n1` [Compound 47]: 12.5 nM; for `Cc1nsc(-c2ccc(N(C)CCCCOc3cc(F)cc(C(F)(F)F)c3)nn2)n1` [Compound 48]: 1.85 nM.
Turning to `Cc1nsc(-c2ccc(N(C)CCCCOc3ccccc3C(F)(F)F)nn2)n1` [Compound 49], the half-maximal inhibitory concentration (IC50) is 0.312 nM.
The same measure, in the same setting: the figure for `Cc1nsc(-c2ccc(N(C)CCOc3cccc(C(F)(F)F)c3)nn2)n1` [Compound 50] is 0.83 nM; for `Cc1nsc(-c2ccc(N(C)CCCOc3cccc(C(F)(F)F)c3)nn2)n1` [Compound 51] it is 9.38 nM; for `Cc1nsc(-c2ccc(N(C)CCCCOc3cc(C(F)(F)F)cc(C(F)(F)F)c3)nn2)n1` [Compound 53] it is 7.33 nM.
Still for that read-out and setting: the same measure for `Cc1nsc(-c2ccc(N(C)CCCCOc3ccc([N+](=O)[O-])c(C(F)(F)F)c3)nn2)n1` [Compound 54]: 13.7 nM.
Same read-out and setting: the figure for `Cc1nsc(-c2ccc(N(C)CCCCOc3ccc(Br)cc3[N+](=O)[O-])nn2)n1` [Compound 56] is 80.7 nM.
Take `Cc1nsc(-c2ccc(N(C)CCCCOc3cccc([N+](=O)[O-])c3)nn2)n1` [Compound 57]: the IC50 was found to be 51.1 nM.
The same measure, in the same setting: the same measure for `Cc1cccc(OCCCCN(C)c2ccc(-c3nc(C)ns3)nn2)c1` [Compound 61]: 35.1 nM; for `Cc1ccc(C(C)C)c(OCCCCN(C)c2ccc(-c3nc(C)ns3)nn2)c1` [Compound 62]: 5.53 nM.
In turn, `CCN(CCCCOc1cccc(C(F)(F)F)c1)c1ccc(-c2nc(C)ns2)nn1` [Compound 63] gave a 50% inhibitory concentration (IC50) of 9.2 nM.
The same measure, in the same setting: the same measure for `CN(C)c1nsc(-c2ccc(NCCCCOc3cccc(C(F)(F)F)c3)nn2)n1` [Compound 67]: 32.4 nM; for `Cc1nsc(-c2ccc(N(C)CCCCC(=O)c3cccc(C(F)(F)F)c3)nn2)n1` [Compound 70]: 12.2 nM.
On the same count and under the same terms, the figure for `Cc1nsc(-c2ccc(NCCCCSc3ccc(F)cc3)nn2)n1` [Compound 71] is under 0.1 nM; for `Cc1nsc(-c2ccc(N(C)CCCCSc3ccc(F)cc3)nn2)n1` [Compound 72] it is 0.388 nM.
For `Cc1nsc(-c2ccc(NCCCCSc3cccc(C(F)(F)F)c3)nn2)n1` [Compound 73], the IC50 was found to be 2.86 nM.
`Cc1nsc(-c2ccc(N(C)CCCCSc3cccc(C(F)(F)F)c3)nn2)n1` [Compound 74] gave a 50% inhibitory concentration (IC50) of 1 nM.
Same read-out and setting: the figure for `Cc1nsc(-c2ccc(N(C)CCCCCc3ccc(F)cc3)nn2)n1` [Compound 76] is 1.15 nM; for `Cc1nsc(-c2ccc(NCCCCCc3cccc(C(F)(F)F)c3)nn2)n1` [Compound 77] it is 5.81 nM; for `Cc1nsc(-c2ccc(N(C)CCCCCc3cccc(C(F)(F)F)c3)nn2)n1` [Compound 78] it is 0.28 nM.
Still for that read-out and setting: the figure for `CN(C)c1nsc(-c2ccc(NCCCCCCNc3cccc(C(F)(F)F)c3)nn2)n1` [Compound 97] is 1.6 nM; for `FC(F)(F)c1cccc(OCCNc2ccc(-c3ncns3)nn2)c1` [Compound 98] it is 3.07 nM.
In turn, `CN(C)c1nsc(-c2ccc(N(C)CCOc3cccc(C(F)(F)F)c3)nn2)n1` [Compound 100] returned an IC50 of 7.01 nM.
On the same count and under the same terms, the figure for `CN(CCCCOc1cccc(C(F)(F)F)c1)c1ccc(-c2nc(CO)ns2)nn1` [Compound 102] is 2.08 nM.
On the same count and under the same terms, the figure for `Cc1nsc(-c2ccc(N(C)CCCNc3cccc(C(F)(F)F)c3)nn2)n1` [Compound 104] is 20.3 nM; for `Cc1nsc(-c2ccc(NCCN(C)c3cccc(C(F)(F)F)c3)nn2)n1` [Compound 105] it is 1.49 nM.
Same read-out and setting: the figure for `Cc1nsc(-c2ccc(NCCCCNc3cccc(C(F)(F)F)c3)nn2)n1` [Compound 108] is 37.9 nM.
On to `Cc1nsc(-c2ccc(N(C)CCN(Cc3ccccc3)c3cccc(C(F)(F)F)c3)nn2)n1` [Compound 110], for which the half-inhibitory concentration (IC50) was 6.98 nM.
The same measure, in the same setting: the figure for `Cc1nsc(-c2ccc(N(C)CCCCN(C)c3cccc(C(F)(F)F)c3)nn2)n1` [Compound 111] is 1.87 nM; for `Cc1nsc(-c2ccc(N(C)CCNc3cccc(C(F)(F)F)c3)nn2)n1` [Compound 112] it is 13.3 nM.
